ChEMBL document CHEMBL1157764, “Conserved high activity binding peptides are involved in adhesion of two detergent-resistant membrane-associated merozoite proteins to red blood cells during invasion” (J Med Chem, 2010)
The source made the active and inactive calls. No cut-off for these calls is given here. Where a SMILES comes first, the peptide text is derived from it. [ ]: non-standard residue; d: D form. Ahp(2) = CCCCC[C@H](N)C(=O)O

Assays:
Plasmodium falciparum [1] = assay: Antiplasmodial activity against Plasmodium falciparum FCB2 assessed as inhibition of merozoite invasion of human RBCs at 1.9 mg/mL after 18 hrs using hydroethidine staining by flow cytometry; assay type: functional; design: scale not given: the % may be the effect or the level left
Homo sapiens [2] = species on record: Homo sapiens; assay: Binding affinity of radio labeled compound to 78 kDa RBC membrane receptor in human RBCs cross-linked with bis-(sulfosuccinimidyl)suberate by autoradiography using SDS-PAGE
Homo sapiens [3] = species on record: Homo sapiens; assay: Binding affinity to RBC membrane receptor in 1 mg/mL chymotrypsin pretreated human RBCs relative to untreated RBCs
Homo sapiens [4] = species on record: Homo sapiens; assay: Binding affinity to RBC membrane receptor in 1 mg/mL trypsin pretreated human RBCs relative to untreated RBCs
Plasmodium falciparum [5] = assay: Antiplasmodial activity against Plasmodium falciparum FCB2 assessed as inhibition of merozoite invasion of human RBCs at 100 uM after 18 hrs using hydroethidine staining by flow cytometry; assay type: functional; details: FCB2, 18 h
Homo sapiens [6] = species on record: Homo sapiens; assay: Binding affinity of radio labeled compound to 85 kDa RBC membrane receptor in human RBCs cross-linked with bis-(sulfosuccinimidyl)suberate by autoradiography using SDS-PAGE
Homo sapiens [7] = species on record: Homo sapiens; assay: Binding affinity to RBC membrane receptor in 150 uU/mL neuraminidase pretreated human RBCs relative to untreated RBCs
[8] = Binding affinity to RBC membrane receptor in human RBCs assessed as dissociation constant by gamma counter
Homo sapiens [9] = species on record: Homo sapiens; assay: Binding affinity to RBC membrane receptor in human RBCs assessed as specific binding activity measured as ratio of specifically bound peptide/added peptide by gamma counter
Plasmodium falciparum [10] = assay: Antiplasmodial activity against Plasmodium falciparum FCB2 assessed as inhibition of merozoite invasion of human RBCs at 200 uM after 18 hrs using hydroethidine staining by flow cytometry; assay type: functional; details: FCB2, 18 h
Plasmodium falciparum [11] = assay: Antiplasmodial activity against Plasmodium falciparum FCB2 assessed as inhibition of merozoite invasion of human RBCs at 1.85 mg/mL after 18 hrs using hydroethidine staining by flow cytometry; assay type: functional; design: scale not given: the % may be the effect or the level left
Homo sapiens [12] = species on record: Homo sapiens; assay: Binding affinity of radio labeled compound to 170 kDa RBC membrane receptor in human RBCs cross-linked with bis-(sulfosuccinimidyl)suberate by autoradiography using SDS-PAGE
Homo sapiens [13] = species on record: Homo sapiens; assay: Binding affinity of radio labeled compound to 47 kDa RBC membrane receptor in human RBCs cross-linked with bis-(sulfosuccinimidyl)suberate by autoradiography using SDS-PAGE
Homo sapiens [14] = species on record: Homo sapiens; assay: Binding affinity of radio labeled compound to 68 kDa RBC membrane receptor in human RBCs cross-linked with bis-(sulfosuccinimidyl)suberate by autoradiography using SDS-PAGE

Row | Compound | Activity (Plasmodium falciparum [1]) [%] | Activity (Homo sapiens [2]) | Activity (Homo sapiens [3]) [%] | Activity (Homo sapiens [4]) [%] | inhibition at 100 µM (Plasmodium falciparum [5]) [%] | Activity (Homo sapiens [6]) | Activity (Homo sapiens [7]) [%] | Kd [8] [nM] | Activity (Homo sapiens [9]) [%] | inhibition at 200 µM (Plasmodium falciparum [10]) [%] | Activity (Plasmodium falciparum [11]) [%] | Activity (Homo sapiens [12]) | Activity (Homo sapiens [13]) | Activity (Homo sapiens [14])
1 | O=C(O)CN(CCOCCOCCN(CC(=O)O)CC(=O)O)CC(=O)O [EGTAZIC ACID] | 81 |  |  |  |  |  |  |  |  |  |  |  |  | 
2 | H-NYRRRKRITELRKILVEKLR-OH |  | Active | 7 | 43 | 47 | Active | 68 | 1700 | > 2 | 15 |  |  |  | 
3 | CC(C)C[C@H](NC(=O)[C@H](CCCCN)NC(=O)[C@H](Cc1ccc(O)cc1)NC(=O)[C@H](CC(C)C)NC(=O)CNC(=O)[C@H](CC(=O)O)NC(=O)[C@H](CO)NC(=O)[C@H](CO)NC(=O)[C@H](Cc1ccc(O)cc1)NC(=O)[C@H](CCCCN)NC(=O)[C@H](CC(C)C)NC(=O)[C@H](Cc1cnc[nH]1)NC(=O)[C@H](CO)NC(=O)[C@H](CO)NC(=O)[C@@H]1CCCN1C(=O)[C@@H](NC(=O)[C@H](CCCCN)NC(=O)[C@H](CS)NC(=O)[C@@H](NC(=O)[C@@H](N)CCCCN)[C@H](C)O)C(C)C)C(=O)O |  |  | 37 | 55 | 45 |  | 23 | 250 | > 2 | 13 |  |  |  | 
4 | CC[C@H](C)[C@H](NC(=O)[C@H](CCCNC(=N)N)NC(=O)[C@H](CCC(=O)O)NC(=O)[C@H](Cc1cnc[nH]1)NC(=O)[C@@H](NC(=O)[C@H](CC(C)C)NC(=O)[C@H](Cc1c[nH]c2ccccc12)NC(=O)[C@H](CCCCN)NC(=O)[C@H](CCCCN)NC(=O)[C@H](CCCCN)NC(=O)[C@H](CCCCN)NC(=O)[C@H](CC(N)=O)NC(=O)[C@H](C)NC(=O)[C@H](CC(=O)O)NC(=O)[C@@H](N)C(C)C)[C@@H](C)O)C(=O)N[C@@H](CC(C)C)C(=O)N[C@@H](CCCCN)C(=O)N[C@@H](CCCCN)C(=O)N[C@@H](CC(C)C)C(=O)N[C@@H](CCC(N)=O)C(=O)N[C@@H](Cc1ccc(O)cc1)C(=O)O |  | Active | 87 | 50 | 37 | Active | 25 | 510 | > 2 | 11 |  |  |  | 
5 | CCN(CC)CCCC(C)Nc1ccnc2cc(Cl)ccc12 (centres undefined) [CHLOROQUINE] |  |  |  |  |  |  |  |  |  |  | 68 |  |  | 
6 | H-DNNKECLIDPLDVQKNLLNEY-OH |  | Active | 59 | 105 | 36 | Active | 13 | 800 | > 2 | 4 |  |  |  | 
7 | H-ASLKETMNKIDTIEKKIEEFY-OH |  | Active | 33 | 87 | 40 | Active | 12 | 1200 | > 2 | 8 |  |  |  | 
8 | H-RLKENKDYDVVSSIIQHLDN-OH |  | Active | 94 | 18 | 42 | Active | 55 | 730 | > 2 | 7 |  |  |  | 
9 | H-YFFEYELRKKTQSFRNKNSI-OH |  | Active | 31 | 83 | 40 | Active | 17 | 900 | > 2 | 10 |  |  |  | 
10 | CC[C@H](C)[C@H](NC(=O)[C@H](CCCCN)NC(=O)CNC(=O)CNC(=O)[C@H](Cc1ccc(O)cc1)NC(=O)[C@H](CC(=O)O)NC(=O)[C@H](CO)NC(=O)[C@H](CC(C)C)NC(=O)[C@@H](N)CCCNC(=N)N)C(=O)N[C@@H](CC(C)C)C(=O)N[C@H](C(=O)N[C@@H](CCCCN)C(=O)NCC(=O)N[C@H](C(=O)N[C@@H](CC(N)=O)C(=O)N[C@@H](C)C(=O)N[C@@H](CCC(N)=O)C(=O)N[C@@H](CC(N)=O)C(=O)N[C@H](C(=O)N[C@@H](CC(C)C)C(=O)O)[C@H](C)O)[C@@H](C)O)C(C)C |  |  | 79 | 11 | 34 |  | 67 | 900 | > 2 | 9 |  |  |  | 
11 | H-FVLAPDEMVYLFYHGNEKKN-OH |  |  | 116 | 31 | 49 |  | 5 | 850 | > 2 | 9 |  |  |  | 
12 | CCCCC[C@H](NC(=O)[C@H](Cc1ccc(O)cc1)NC(=O)[C@@H](NC(=O)[C@H](CCCNC(=N)N)NC(=O)[C@H](CCCNC(=N)N)NC(=O)[C@H](CCC(N)=O)NC(=O)[C@@H]1CCCN1C(=O)[C@@H](NC(=O)[C@@H](NC(=O)[C@H](Cc1ccccc1)NC(=O)[C@@H](NC(=O)[C@H](CC(=O)O)NC(=O)[C@H](CC(N)=O)NC(=O)[C@H](CCC(=O)O)NC(=O)CNC(=O)[C@H](Cc1ccccc1)NC(=O)[C@H](CC(C)C)NC(=O)[C@@H](N)Cc1ccc(O)cc1)[C@@H](C)CC)C(C)C)C(C)C)[C@@H](C)CC)C(=O)N[C@H](C(=O)N[C@@H](CCC(=O)O)C(=O)O)[C@@H](C)O (H-YLFGENDIFVVPQRRIY[Ahp(2)]TE-OH) |  |  |  |  |  |  |  |  | > 2 |  |  |  |  | 
13 | CC(C)[C@H](NC(=O)[C@H](Cc1cnc[nH]1)NC(=O)[C@@H](NC(=O)[C@H](CCCCN)NC(=O)[C@H](CCC(=O)O)NC(=O)[C@@H](NC(=O)[C@H](CC(N)=O)NC(=O)[C@H](CC(N)=O)NC(=O)[C@H](CCCNC(=N)N)NC(=O)[C@H](Cc1ccccc1)NC(=O)[C@H](C)NC(=O)[C@H](Cc1cnc[nH]1)NC(=O)[C@@H](NC(=O)[C@@H](NC(=O)[C@H](CO)NC(=O)[C@H](CCC(=O)O)NC(=O)[C@H](CC(N)=O)NC(=O)[C@@H](N)CO)C(C)C)[C@@H](C)O)[C@@H](C)O)[C@@H](C)O)C(=O)N[C@@H](Cc1cnc[nH]1)C(=O)N[C@@H](CCCCN)C(=O)N[C@@H](Cc1ccc(O)cc1)C(=O)O |  |  |  |  |  |  |  |  | > 2 |  |  |  |  | 
14 | H-LNEDLVLLYNDFPFDNGMIS-OH |  |  |  |  |  |  |  |  | > 2 |  |  |  |  | 
15 | CC[C@H](C)[C@H](NC(=O)[C@H](Cc1cnc[nH]1)NC(=O)[C@H](CC(N)=O)NC(=O)[C@H](CCCNC(=N)N)NC(=O)[C@@H](NC(=O)[C@@H](N)Cc1ccc(O)cc1)[C@@H](C)CC)C(=O)N[C@@H](CC(=O)O)C(=O)N[C@@H](CC(C)C)C(=O)N[C@@H](CC(=O)O)C(=O)N[C@@H](Cc1ccccc1)C(=O)N1CCC[C@H]1C(=O)N[C@@H](Cc1ccccc1)C(=O)N[C@@H](CC(=O)O)C(=O)N[C@H](C(=O)N[C@@H](CC(=O)O)C(=O)N[C@H](C(=O)N[C@H](C(=O)N[C@@H](CCCCN)C(=O)N[C@@H](CC(C)C)C(=O)N[C@@H](Cc1ccc(O)cc1)C(=O)O)C(C)C)[C@H](C)O)[C@H](C)O |  | Active | 90 | 29 | 76 | Active | 120 | 800 | > 2 | -3 |  | Active | Active | Active
16 | H-DGLNCFDNVYIKNKTLVKIE-OH |  |  |  |  |  |  |  |  | > 2 |  |  |  |  | 
17 | CC(C)C[C@H](NC(=O)[C@H](CC(C)C)NC(=O)[C@H](CO)NC(=O)[C@@H]1CCCN1C(=O)[C@@H](NC(=O)[C@H](CC(C)C)NC(=O)[C@H](Cc1ccc(O)cc1)NC(=O)[C@H](CO)NC(=O)[C@H](CCCCN)NC(=O)[C@H](CCCCN)NC(=O)[C@H](CCCCN)NC(=O)CNC(=O)[C@@H](NC(=O)[C@H](CO)NC(=O)[C@H](CS)NC(=O)[C@H](CCCCN)NC(=O)[C@H](Cc1cnc[nH]1)NC(=O)[C@H](Cc1ccc(O)cc1)NC(=O)[C@H](CC(=O)O)NC(=O)[C@@H](N)CO)C(C)C)[C@@H](C)O)C(=O)O |  |  |  |  |  |  |  |  | < 2 |  |  |  |  | 
